Results on 2 compounds are retold here after patent US6348476B1, “Pharmaceutical combination preparation of an inhibitor of the sodium/hydrogen exchanger and a medicament for the treatment of cardiovascular diseases” (Aventis Pharma Deutschland GmbH, priority 1997, dated 2002).

The experiment relates to experimental cardiac infarct in rats. Put plainly: experimental cardiac infarct in rats: coronary artery closed for one hour, reperfused for two hours, size of infarct determined. The format is in vivo. As to conditions: % of the risk area, mean±S.E.M., control 63.4±4.3%. As for the experimental part: Male rats having a body weight of 280 to 410 g were classed into four groups and anaesthetized. The thorax was opened close to the sternum, a silk thread (Ethicon^R; 1.0 metric, 5-0) was placed around left coronary artery and the two loose ends of the thread were pulled through a small plastic tube.
For administration of substance, a catheter was placed into the left jugular vein. The systemic blood pressure was recorded in the left carotid artery using a pressure recorder (Combitrans^R, B. Braun Melsungen AG) and the ECG was registered using subcutaneous electrodes. After digital conversion, the data were registered in a computer and the ECG was evaluated in accordance with the guidelines of the Lambeth Convention (6. Walker M J A, Curtis M J, Hearse D J, Campbell R W F, Janse M J, Yellon D M, Cobbe S M, Cokes S J, Harness J B, Harron D W G, Higgins S J, Julian D G, Lab M J, Manning A S, Northover B J, Parraft J R, Riemersma R A, Rieva E, Russell D G, Sheridan D J, Winslow E, Woodward B: The Lambeth convention: Guidelines for the study of arrhythmias in ischemia, infarction and reperfusion. Cardiovasx. Res 1988; 22: 447-455).
Hoe 642 was dissolved in doubly distilled water and R56865 in tartaric acid (0.6%), dilution was carried out using doubly distilled water, and 4% of mannitol were added. […]

As for `CC(C)c1ccc(C(=O)N=C(N)N)cc1S(C)(=O)=O.CS(=O)(=O)O` [Hoe 642, cariporide], the size of infarct (10 mg/kg of body weight of Hoe 642 intravenously 5 min before occlusion, n=7) stood at 33.2±3.7%.
Regarding `CN(c1nc2ccccc2s1)C1CCN(CCCCOc2ccc(F)cc2)CC1` [R56865, N-[1-[4-(4-fluorophenoxy)butyl]-4-piperdinyl]-N-methyl-2-benzothiazolamine], where the note is “3 mg/kg of body weight of R56865 intravenously 5 min before occlusion, n=8”, the size of infarct stood at 38.9±3.1%.
